# Test results taken from patent US20230390277A1, “METHODS TO SENSITIZE TUMORS TO TREATMENT BY IMMUNOTHERAPY” (Ohio State Innovation Foundation, priority 2020, published 2023).
# Residues, ends and D or L forms follow the SMILES beside them. *: point of attachment. Cbz = O=C(OCc1ccccc1)*
# How the values were obtained:
# [1] = test system: MP2 pODD flank tumors; assay: in vivo bioluminescent imaging, heterotopic MP2 pODD flank tumors; parameters: species or system mouse
# Procedure: In vivo bioluminescent imaging. […] For heterotopic flank tumor experiments, 1×10^6 HeLa pODD or 5×10^6 MP2 cells were injected subcutaneously (s.c.) into the flanks of 6-wk-old female (HeLa pODD) or male (N1P2 pODD or MP2 CMV) immunocompromised athymic nu/nu mice. Replicate experiments with groups of 4-6 mice were used for statistical reproducibility. Caliper measurements of opposing diameters were used to calculate the tumor volumes using the modified ellipsoidal formula: tumor volume=(length×width^2)[23]. Upon reaching 100 mm^3, the animals were given 100 mg/kg D-luciferin intraperitoneally and bioluminescence images were captured using IVIS In Vivo Imaging System Lumina II (Perkin Elmer Inc). […] Bioluminescent data were analyzed using living Image software (Perkin Elmer Inc) and calculated as photon flux/sec. Obtained individual photon flux peak values were then normalized to baseline for each mouse and averaged per group. Gas inhalation experiments were performed by switching medical air and carbogen gas sources for the IVIS anesthesia vaporizer. Initial baselines were established in medical air under anesthesia, then the mice were subjected to 30 minutes of either medical air or carbogen rebreathing in an air-tight chamber while awake. After 30 minutes, photon flux was established in respective gas sources as a carrier for isoflurane anesthesia.
# [2] = target: T1, PDE10A (Homo sapiens, UniProt Q9Y233); assay: PDE10A purified enzyme activity assay (BPS Bioscience); format: biochemical
# T1 construct: purchased BPS Bioscience
# T1 sequence (Q9Y233 whole entry): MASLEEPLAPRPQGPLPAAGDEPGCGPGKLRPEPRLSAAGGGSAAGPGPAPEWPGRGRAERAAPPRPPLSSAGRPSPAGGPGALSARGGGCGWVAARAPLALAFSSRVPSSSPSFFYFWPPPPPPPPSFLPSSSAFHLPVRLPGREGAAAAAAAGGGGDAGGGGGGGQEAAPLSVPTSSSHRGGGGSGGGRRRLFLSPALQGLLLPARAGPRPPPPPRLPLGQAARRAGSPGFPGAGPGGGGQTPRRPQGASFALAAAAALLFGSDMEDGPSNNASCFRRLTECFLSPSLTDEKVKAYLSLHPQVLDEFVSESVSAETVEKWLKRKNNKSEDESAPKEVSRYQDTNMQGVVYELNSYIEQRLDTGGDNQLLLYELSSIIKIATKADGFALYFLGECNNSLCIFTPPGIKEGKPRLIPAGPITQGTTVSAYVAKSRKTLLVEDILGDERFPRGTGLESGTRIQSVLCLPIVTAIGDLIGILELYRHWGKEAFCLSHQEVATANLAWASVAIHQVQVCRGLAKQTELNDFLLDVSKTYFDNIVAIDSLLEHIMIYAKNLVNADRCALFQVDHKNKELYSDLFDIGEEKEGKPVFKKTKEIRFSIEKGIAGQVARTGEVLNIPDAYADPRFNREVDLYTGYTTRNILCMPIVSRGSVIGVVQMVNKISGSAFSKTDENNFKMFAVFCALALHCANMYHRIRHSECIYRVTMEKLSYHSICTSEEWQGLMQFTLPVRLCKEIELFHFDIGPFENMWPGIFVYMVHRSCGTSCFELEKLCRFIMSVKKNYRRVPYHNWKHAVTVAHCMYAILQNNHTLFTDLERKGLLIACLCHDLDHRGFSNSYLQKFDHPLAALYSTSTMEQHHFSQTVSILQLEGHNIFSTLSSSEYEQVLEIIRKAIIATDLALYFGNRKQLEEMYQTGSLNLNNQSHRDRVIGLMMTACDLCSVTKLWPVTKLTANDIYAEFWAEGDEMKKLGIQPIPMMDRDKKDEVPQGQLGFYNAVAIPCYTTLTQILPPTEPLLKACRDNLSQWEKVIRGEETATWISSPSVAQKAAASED
# Description: We therefore defined the structure activity relationship (SAR) of PPV relative to two assays: inhibition of cellular OCR by Seahorse XE assay, and inhibition of PDE10A by purified enzyme activity (PDE10A activity assay, BPS Bioscience). […] Because the top portion of PPV was a planar structure like that of rotenone, we decided to focus our attention on the lower portion of the molecule.
# [3] = target: ETC complex 1 (C1) (Homo sapiens, UniProt O75251+O75306+P03886); assay: inhibition of cellular OCR by Seahorse XE assay; format: cell-based
# Sequence of ETC complex 1 (C1) (O75251 39-213): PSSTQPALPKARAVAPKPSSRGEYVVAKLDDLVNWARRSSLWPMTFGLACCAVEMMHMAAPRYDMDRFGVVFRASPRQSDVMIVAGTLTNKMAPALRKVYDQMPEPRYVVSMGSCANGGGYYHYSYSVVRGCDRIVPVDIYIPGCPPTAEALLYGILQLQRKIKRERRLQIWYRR
# Sequence of ETC complex 1 (C1) (O75306 34-463): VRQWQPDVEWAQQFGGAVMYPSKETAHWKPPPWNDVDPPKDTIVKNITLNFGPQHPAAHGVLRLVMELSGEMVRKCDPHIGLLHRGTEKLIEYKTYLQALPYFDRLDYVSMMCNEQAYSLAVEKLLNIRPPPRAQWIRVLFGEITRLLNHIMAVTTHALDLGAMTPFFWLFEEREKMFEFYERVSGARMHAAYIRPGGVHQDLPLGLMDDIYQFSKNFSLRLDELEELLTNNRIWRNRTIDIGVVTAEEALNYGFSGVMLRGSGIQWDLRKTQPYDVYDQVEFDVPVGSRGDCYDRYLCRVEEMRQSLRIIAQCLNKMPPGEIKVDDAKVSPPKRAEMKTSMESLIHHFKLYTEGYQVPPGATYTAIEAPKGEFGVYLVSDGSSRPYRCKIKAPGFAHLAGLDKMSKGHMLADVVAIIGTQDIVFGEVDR
# Sequence of ETC complex 1 (C1) (P03886 whole entry): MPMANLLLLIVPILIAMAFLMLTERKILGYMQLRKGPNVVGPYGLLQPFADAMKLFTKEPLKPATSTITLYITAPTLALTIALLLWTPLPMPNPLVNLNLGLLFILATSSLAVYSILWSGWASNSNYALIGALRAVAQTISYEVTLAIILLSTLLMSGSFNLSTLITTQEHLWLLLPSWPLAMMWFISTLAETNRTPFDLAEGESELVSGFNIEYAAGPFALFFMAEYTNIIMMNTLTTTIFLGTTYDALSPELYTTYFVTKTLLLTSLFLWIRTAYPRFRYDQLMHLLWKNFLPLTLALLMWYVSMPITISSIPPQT
# Description: PPVs PDE and mitochondrial activities are chemically separable. Papaverine has been traditionally thought to be effective as a vasodilator for the treatment of conditions including erectile dysfunction because it can inhibit PDE10A (like PDE 5 inhibitors sildenafil and tadalafil). However, PDE inhibition is not responsible for OCR effects in vitro, so we postulated that there are two activities in PPV, one inhibiting ETC complex 1 (C1) and one inhibiting PDE10A that may reside in different parts of the molecule. We therefore defined the structure activity relationship (SAR) of PPV relative to two assays: inhibition of cellular OCR by Seahorse XE assay, and inhibition of PDE10A by purified enzyme activity (PDE10A activity assay, BPS Bioscience). Because PPV can compete with rotenone at complex 1 (23), we reasoned that they may be binding the same site and therefore the structures would be similar relative to their target. Because the top portion of PPV was a planar structure like that of rotenone, we decided to focus our attention on the lower portion of the molecule.
# [4] = test system: murine tumors; assay: murine tumor hypoxia and radiation response; conditions: mouse, in vivo
# [5] = test system: pODD-Luc reporter in MP2 pODD cells; assay: in vitro luciferase assay, MP2 pODD cells; format: cell-based, human; conditions: one hour of 10 μM
# Procedure: PCR-amplified cassette was then digested with Asci and Pmel restriction enzymes and ligated into pLenti-C-Myc-DDK-IRES-Puro. Correct orientation and sequence was confirmed by Sanger DNA sequencing. HeLa pODD and MIP2 pODD transfectants were selected with 2 μg/ml Puromycin for two weeks. Stable MP2 CMV Cells were generated by lentiviral transduction of MP2 cells with pLenti-CMV-Puro-Luc lentiviral vector (Addgene#17477) with 2 Puromycin selection for two weeks. Cells were grown in Dulbecco's Modified Eagle's Medium (DMEM) containing 25 mM D-glucose, 4 mM glutamine and 44 mM sodium bicarbonate in 5% CO2, if not stated otherwise. The cells were exposed to hypoxia (1% O2) in H35 Hypoxic Workstation (Hypoxygen) with 5% CO2 at 37° C. In some experiments, we used a hypoxia mimetic dimethyloxalyglycine (DMOG) as described. Cell counts and cellular proliferation were established using hemocytometer to determine the cell number and trypan blue exclusion assay to establish the fraction of viable/dead cells. All human cell lines have been authenticated using STR profiling within the past 3 years. All experiments were performed with mycoplasma-free cells.
# In vitro luciferase Assay. Proteins were extracted using Luciferase Assay Lysis Buffer (125 mM Tris-HCl, pH 7.5, 11.0 mM DTT, 10 mM EGTA, 50% Glycerol, 5% Triton X-100) and 200 μl/sample were transferred to 96-well plate and D-luciferin was added to the final concentration of 150 μg/ml immediately before the assay. Bioluminescence was measured on a Synergy H1 Hybrid Plate Reader (Biotek) after a 10-minute incubation period (10 slsample, Gain=150) in triplicates.
smiles,measurement,setting,value
"O=[N+]([O-])c1ccc(O)c([N+](=O)[O-])c1 [2,4-DNP, 2,4-dinitrophenol]",increase of photon flux compared to baseline,[1]; single intraperitoneal dose of 20 mg/kg,1.6 ×
COc1cc2ccnc(Cc3cc(C)cc(C)c3)c2cc1OC [SMV23],PDE inhibition IC25,[2]; dose response analysis,500 nM
same,PDE10A inhibitor selectivity,[2]; vs C1,relatively pure
CC(C)C[C@H](NC(=O)[C@H](Cc1ccccc1)NC(=O)c1cnccn1)B(O)O [bortezomib],photon flux,"[1]; 1 mg/kg intraperitoneally, 2 hours post injection",significant increase of photon flux
COc1ccc(OCc2nccc3cc(OC)c(OC)cc23)cc1OC [SMV37],mitochondrial activity,[3],retain mitochondrial activity
same,C1 inhibitor selectivity,[3]; vs PDE10A,relatively pure
same,radiation response,[4],increase radiation response of murine tumors
same,tumor hypoxia,[4],reduce tumor hypoxia
CC(C)C[C@@H](C=O)NC(=O)[C@H](CC(C)C)NC(=O)[C@H](CC(C)C)NC(=O)OCc1ccccc1 [MG132] (Cbz-Leu-Leu-Leu-aldehyde),increase in pODD-Luc activity compared to 24 h hypoxia,[5],70 fold
same,induction of pODD-Luc activity compared to normoxia,[5],377 fold
"O=C(O)C(Cl)Cl [DCA, Dichloroacetate]",increase of photon flux,[1]; intraperitoneal 75 mg/kg,1.8 ×
